# Experimental data published in patent publication EP0808172B1, “COMBINATION OF ANGIOTENSIN CONVERTING ENZYME INHIBITOR AND ALDOSTERONE ANTAGONIST FOR THE TREATMENT OF VENTRICULAR HYPERTROPHY” (priority 1995, dated 1996).
# Assays:
# [1] = test system: patients with symptomatic heart failure; experiment: Human clinical trial: weight and vital signs; format: in vivo, humans; settings: 75 mg dose group, Day 9 and Week 4 visits
# Experimental: (§1) Concurrent medication within the past 30 days. • 2. 12-lead ECG • 3. […] Signs and symptoms within the past 30 days.
# Patients were evaluated 9 days after beginning study medication.
# (§2) All statistical methods were two-sided.
# [2] = test system: patients with symptomatic heart failure; experiment: Human clinical trial: cardiac assessments (sodium retention score, NYHA class) and changes in patient therapy; format: in vivo, humans; settings: spironolactone groups vs placebo; difference not statistically significant
# Text: as §1, §2
# [3] = test system: patients afflicted with congestive heart failure; settings: spironolactone 100 mg/day coadministered with an ACE inhibitor; van Vliet et al 1993; cited from earlier work
# [4] = test system: patients with symptomatic heart failure; experiment: Human clinical trial: hospitalizations and deaths
# [5] = test system: patients with symptomatic heart failure; experiment: Human clinical trial: neurohormones (urinary aldosterone, plasma renin activity, N-terminal ANF); settings: 12 week visit, dose response (p = 0.002)
smiles,measurement,setting,value
"CC(=O)S[C@@H]1CC2=CC(=O)CC[C@]2(C)[C@H]2CC[C@@]3(C)[C@@H](CC[C@@]34CCC(=O)O4)[C@H]12 [Spironolactone, 17-hydroxy-7α-mercapto-3-oxo-17α-pregn-4-ene-21-carboxylic acid γ-lactone acetate]",changes from baseline in body weight,[1],more weight loss than other patients
same,NYHA Class,[2],trend toward improvement
same,patients in whom the treatment was highly effective,[3],13 of 16
same,patients died within 30 days after the study was completed,[4]; previously at the 50 mg dose,Three
same,"Hospitalizations, percent of patients",[4]; spironolactone 12.5 mg,7.3%
same,"Hospitalizations, percent of patients",[4]; spironolactone 25 mg,6.6%
same,"Hospitalizations, percent of patients",[4]; spironolactone 50 mg,27.6%
same,"Hospitalizations, percent of patients",[4]; spironolactone 75 mg,14.6%
same,"Urinary aldosterone excretion, change from baseline",[5],Greater increases were seen at higher doses of spironolactone
